Data taken from US20180360801A1, “NEUROPROTECTIVE COMPOSITIONS AND THEIR USE” (priority 2017, published 2018).

Experiment: Blood glucose by glucometer after 4 weeks of treatment
Format: in vivo
Conditions: rats, streptozotocin 55 mg/kg ip, n=12, p<0.05
Experimental: In this study, we used streptozotocin (55 mg/kg) to induce hyperglycemia. We measured the levels of glucose using standardized glucometer after 4 weeks of treatment. Based on the literature, the current animal model represents severe hyperglycemia.

CN(N=O)C(=O)N[C@H]1C(O)O[C@H](CO)[C@@H](O)[C@@H]1O (mixture of isomers) [Streptozotocin, streptozotocin]
increase of levels of glucose as compared to the controls: 445.5%
